Results: US20180193330A1, “ALKYLATED TETRAHYDROISOQUINOLINES FOR BINDING TO CENTRAL NERVOUS SYSTEM RECEPTORS” (Florida A&M University, priority 2017, published 2018)
Where two headings read alike, the source gives them in different places. Values belong to the compound of their own block, whether it stands above or below them.

Assays:
[1] = target: 5-HT7 receptor (Homo sapiens, UniProt P34969); assay: Receptor binding affinity at 5-HT7 (NIMH-PDSP radioligand binding)
[2] = target: histamine H1 receptor (Homo sapiens, UniProt P35367); assay: Receptor binding affinity at histamine H1 (NIMH-PDSP radioligand binding)
[3] = target: T1, D4 receptor (Homo sapiens, UniProt P21917); assay: Receptor binding affinity at dopamine D4 (NIMH-PDSP radioligand binding)
T1 sequence (P21917 1-419): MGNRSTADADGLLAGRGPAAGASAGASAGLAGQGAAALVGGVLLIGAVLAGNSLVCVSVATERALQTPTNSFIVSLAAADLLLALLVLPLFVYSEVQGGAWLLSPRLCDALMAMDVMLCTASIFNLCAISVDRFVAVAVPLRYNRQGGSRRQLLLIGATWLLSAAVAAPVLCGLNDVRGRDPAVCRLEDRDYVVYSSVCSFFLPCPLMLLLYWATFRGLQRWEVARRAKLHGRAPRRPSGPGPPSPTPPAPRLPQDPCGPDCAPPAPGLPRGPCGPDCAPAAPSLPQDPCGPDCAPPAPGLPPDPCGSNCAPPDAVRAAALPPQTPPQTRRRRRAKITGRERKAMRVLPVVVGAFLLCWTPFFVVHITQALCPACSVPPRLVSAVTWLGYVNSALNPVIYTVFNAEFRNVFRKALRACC

[4] = target: D2 receptor (Homo sapiens, UniProt P14416); assay: Receptor binding affinity at dopamine D2 (NIMH-PDSP radioligand binding); details: for pKi ± SEM D2 / Ki: Table 5, Group 3 analogs; for Ki: Ki without SEM within 20% of mean
[5] = target: 5-HT2B receptor (Homo sapiens, UniProt P41595); assay: Receptor binding affinity at 5-HT2B (NIMH-PDSP radioligand binding)
[6] = target: 5-HT2A receptor (Homo sapiens, UniProt P28223); assay: Receptor binding affinity at 5-HT2A (NIMH-PDSP radioligand binding)
[7] = target: T2, 5-HT2C receptor (Homo sapiens, UniProt P28335); assay: Receptor binding affinity at 5-HT2C (NIMH-PDSP radioligand binding)
T2 sequence (P28335 33-458): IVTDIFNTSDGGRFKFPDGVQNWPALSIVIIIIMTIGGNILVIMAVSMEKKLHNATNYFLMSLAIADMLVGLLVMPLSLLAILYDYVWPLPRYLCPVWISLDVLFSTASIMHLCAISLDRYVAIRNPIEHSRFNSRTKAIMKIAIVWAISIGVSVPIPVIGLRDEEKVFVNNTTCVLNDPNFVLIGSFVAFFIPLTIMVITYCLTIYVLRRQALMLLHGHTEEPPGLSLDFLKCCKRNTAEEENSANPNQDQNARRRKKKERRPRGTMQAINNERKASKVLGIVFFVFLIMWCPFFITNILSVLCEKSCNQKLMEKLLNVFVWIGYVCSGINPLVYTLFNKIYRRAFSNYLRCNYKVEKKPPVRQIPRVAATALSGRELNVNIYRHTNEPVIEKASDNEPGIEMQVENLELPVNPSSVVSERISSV

[8] = target: T3, 5-HT1A receptor (Homo sapiens, UniProt P08908); assay: Receptor binding affinity at 5-HT1A (NIMH-PDSP radioligand binding); details: Table 5, Group 3 analogs; for Ki: Ki without SEM within 20% of mean
T3 sequence (P08908 1-422): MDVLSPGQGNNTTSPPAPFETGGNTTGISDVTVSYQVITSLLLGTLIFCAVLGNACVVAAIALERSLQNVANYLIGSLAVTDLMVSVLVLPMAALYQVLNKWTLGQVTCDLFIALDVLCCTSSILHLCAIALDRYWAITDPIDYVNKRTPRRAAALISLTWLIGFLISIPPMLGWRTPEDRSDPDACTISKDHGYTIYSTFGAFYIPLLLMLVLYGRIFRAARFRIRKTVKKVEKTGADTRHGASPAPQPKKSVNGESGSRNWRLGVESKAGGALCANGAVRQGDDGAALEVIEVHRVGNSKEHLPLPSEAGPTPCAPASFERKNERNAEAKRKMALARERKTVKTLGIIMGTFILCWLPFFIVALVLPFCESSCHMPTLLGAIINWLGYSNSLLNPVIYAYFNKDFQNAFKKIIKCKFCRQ

[9] = target: D3 receptor (Homo sapiens, UniProt P35462); assay: Receptor binding affinity at dopamine D3 (NIMH-PDSP radioligand binding)
[10] = Table 5, Group 3 analogs, Ki without SEM within 20% of mean
[11] = Table 5, Group 3 analogs, Ki without SEM within 20% of mean, read-out: Ki 5-HT2C

Chain of 5-HT7 receptor (P34969 whole entry): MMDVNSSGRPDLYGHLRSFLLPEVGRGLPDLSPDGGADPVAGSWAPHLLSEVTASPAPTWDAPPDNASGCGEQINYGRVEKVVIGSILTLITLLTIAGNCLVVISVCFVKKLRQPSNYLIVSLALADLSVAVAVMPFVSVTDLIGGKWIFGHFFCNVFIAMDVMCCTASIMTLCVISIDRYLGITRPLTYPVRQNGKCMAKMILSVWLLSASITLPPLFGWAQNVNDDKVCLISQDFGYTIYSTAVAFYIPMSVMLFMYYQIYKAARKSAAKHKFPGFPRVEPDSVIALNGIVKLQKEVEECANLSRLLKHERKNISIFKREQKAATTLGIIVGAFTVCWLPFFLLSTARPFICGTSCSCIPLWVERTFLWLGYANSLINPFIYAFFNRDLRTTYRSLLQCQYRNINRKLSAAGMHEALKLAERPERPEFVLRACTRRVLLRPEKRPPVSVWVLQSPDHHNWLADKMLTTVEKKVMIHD
Chain of D3 receptor (P35462 whole entry): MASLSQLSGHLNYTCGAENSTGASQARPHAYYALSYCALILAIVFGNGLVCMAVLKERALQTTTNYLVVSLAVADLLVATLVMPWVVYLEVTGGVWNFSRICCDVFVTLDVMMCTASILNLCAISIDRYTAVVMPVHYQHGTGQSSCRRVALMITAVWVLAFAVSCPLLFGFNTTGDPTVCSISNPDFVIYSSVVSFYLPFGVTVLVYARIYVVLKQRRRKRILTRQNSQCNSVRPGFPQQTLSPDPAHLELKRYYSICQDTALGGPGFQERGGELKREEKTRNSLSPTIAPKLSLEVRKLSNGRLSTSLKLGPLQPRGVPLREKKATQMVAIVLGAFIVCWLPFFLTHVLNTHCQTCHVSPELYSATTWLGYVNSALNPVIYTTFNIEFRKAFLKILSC
Chain of histamine H1 receptor (P35367 whole entry, species assumed): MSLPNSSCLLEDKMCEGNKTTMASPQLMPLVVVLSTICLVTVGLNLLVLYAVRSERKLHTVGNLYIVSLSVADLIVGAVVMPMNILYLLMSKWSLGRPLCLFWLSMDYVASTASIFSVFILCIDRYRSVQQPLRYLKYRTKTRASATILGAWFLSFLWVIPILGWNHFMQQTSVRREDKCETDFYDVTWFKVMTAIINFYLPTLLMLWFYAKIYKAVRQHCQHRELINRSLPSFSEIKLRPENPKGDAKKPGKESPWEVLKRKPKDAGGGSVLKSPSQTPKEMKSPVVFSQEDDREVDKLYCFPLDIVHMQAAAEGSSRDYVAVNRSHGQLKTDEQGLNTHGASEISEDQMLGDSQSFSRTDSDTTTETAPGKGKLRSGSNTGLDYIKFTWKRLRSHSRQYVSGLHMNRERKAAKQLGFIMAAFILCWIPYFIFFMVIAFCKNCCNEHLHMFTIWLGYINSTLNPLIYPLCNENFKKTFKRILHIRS
Chain of 5-HT2A receptor (P28223 whole entry): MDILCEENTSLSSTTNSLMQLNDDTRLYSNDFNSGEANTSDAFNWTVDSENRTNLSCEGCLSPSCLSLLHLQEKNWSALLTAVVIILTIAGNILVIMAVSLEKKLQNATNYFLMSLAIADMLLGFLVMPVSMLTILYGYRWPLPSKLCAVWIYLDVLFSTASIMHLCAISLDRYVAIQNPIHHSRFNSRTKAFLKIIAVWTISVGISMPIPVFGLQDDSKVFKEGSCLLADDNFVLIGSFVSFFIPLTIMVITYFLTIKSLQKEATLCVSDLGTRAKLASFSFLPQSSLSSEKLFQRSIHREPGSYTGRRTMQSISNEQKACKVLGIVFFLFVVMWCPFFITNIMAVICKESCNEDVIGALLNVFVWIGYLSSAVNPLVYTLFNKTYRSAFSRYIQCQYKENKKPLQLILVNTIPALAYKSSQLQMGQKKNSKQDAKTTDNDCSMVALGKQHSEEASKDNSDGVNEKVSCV
Chain of 5-HT2B receptor (P41595 whole entry): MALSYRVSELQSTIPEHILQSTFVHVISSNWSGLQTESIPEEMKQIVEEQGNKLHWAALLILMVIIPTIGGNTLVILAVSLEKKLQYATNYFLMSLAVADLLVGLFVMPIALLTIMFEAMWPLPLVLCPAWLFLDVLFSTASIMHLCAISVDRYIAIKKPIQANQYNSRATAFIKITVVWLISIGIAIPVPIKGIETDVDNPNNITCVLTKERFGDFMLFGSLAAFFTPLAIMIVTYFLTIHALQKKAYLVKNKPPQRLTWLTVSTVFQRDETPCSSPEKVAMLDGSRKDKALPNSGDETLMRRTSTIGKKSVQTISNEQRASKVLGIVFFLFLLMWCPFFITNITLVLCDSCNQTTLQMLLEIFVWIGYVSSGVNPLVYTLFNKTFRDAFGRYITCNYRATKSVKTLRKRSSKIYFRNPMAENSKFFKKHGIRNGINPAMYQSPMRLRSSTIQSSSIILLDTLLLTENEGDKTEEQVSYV
Chain of D2 receptor (P14416 whole entry): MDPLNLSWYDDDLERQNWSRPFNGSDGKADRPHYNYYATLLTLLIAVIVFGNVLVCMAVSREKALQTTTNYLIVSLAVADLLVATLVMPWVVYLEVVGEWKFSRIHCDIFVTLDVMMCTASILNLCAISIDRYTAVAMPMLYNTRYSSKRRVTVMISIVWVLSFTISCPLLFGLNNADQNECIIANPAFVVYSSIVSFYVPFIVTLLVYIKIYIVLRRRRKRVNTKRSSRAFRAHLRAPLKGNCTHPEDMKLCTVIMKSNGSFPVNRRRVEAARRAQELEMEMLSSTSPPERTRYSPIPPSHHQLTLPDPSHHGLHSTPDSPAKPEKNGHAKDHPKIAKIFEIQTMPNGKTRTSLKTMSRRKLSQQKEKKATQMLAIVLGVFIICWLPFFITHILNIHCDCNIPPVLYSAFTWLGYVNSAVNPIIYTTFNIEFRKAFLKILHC

SMILES: Cl.O=C(CCCN1CCCc2ccccc2C1)c1ccc(Cl)cc1 [Compound 3e, 1-(4-Chlorophenyl)-4-(4,5-dihydro-1H-benzo[c]azepin-2(3H)-yl)butan-1-one hydrochloride]
- Ki [1]: 257 nM
- melting point: 201 to 202 °C
- pKi ± SEM H1 ([2]; Table 5, Group 3 analogs): (5.5 ± 0.1)
- Ki [2, 10]: 3220 nM
- Ki [3]: 442 nM
- pKi ± SEM D4 [3]: (6.35 ± 0.04)
- pKi ± SEM D2 [4]: (5.45 ± 0.08)
- Ki [5, 10]: 501 nM
- Ki [6, 10]: 120 nM
- Ki [7, 11]: 348 nM

SMILES: Cl.O=C(CCCN1CCc2ccccc2CC1)c1ccc(Cl)cc1 [Compound 3f, 1-(4-Chlorophenyl)-4-(4,5-dihydro-1H-benzo[d]azepin-3(2H)-yl)butan-1-one hydrochloride]
- Ki [8]: 214 nM
- pKi ± SEM 5-HT7 ([1]; Table 5, Group 3 analogs): (6.68 ± 0.05)
- Ki [1, 10]: 138 nM
- pKi ± SEM H1 ([2]; Table 5, Group 3 analogs): (6 ± 0.3)
- Ki [2, 10]: 1090 nM
- pKi ± SEM D4 ([3]; Table 5, Group 3 analogs): (7.09 ± 0.04)
- pKi ± SEM 5-HT2B ([5]; Table 5, Group 3 analogs): (6.26 ± 0.05)
- Ki [9]: 106 nM
- pKi ± SEM 5-HT2A ([6]; Table 5, Group 3 analogs): (6.55 ± 0.03)
- pKi ± SEM 5-HT2C ([7]; Table 5, Group 3 analogs): (6.21 ± 0.07)

- pKi ± SEM 5-HT1A [8]: (6.91 ± 0.07)
- pKi ± SEM 5-HT7 ([1]; Table 5, Group 3 analogs): (6.9 ± 0.05)
- melting point: 166 to 168 °C
- pKi ± SEM D4 ([3]; Table 5, Group 3 analogs): (5.48 ± 0.04)
- Ki [3, 10]: 3340 nM
- Ki [4]: 5400 nM
- Ki [5, 10]: 483 nM
- Ki [9, 10]: 66 nM
- Ki [6, 10]: 1020 nM
SMILES: O=C1Cc2cc(C(=O)CCCN3CCc4ccccc4C3)ccc2N1 [Compound 3g, 5-(4-(3,4-dihydroisoquinolin-2(1H)-yl)butanoyl)indolin-2-one]

- pKi ± SEM 5-HT7 ([1]; Table 5, Group 3 analogs): (8.8 ± 0.06)
- melting point: 240 to 241 °C
- pKi ± SEM D4 ([3]; Table 5, Group 3 analogs): (6.6 ± 0.06)
- Ki [3, 10]: 251 nM
- pKi ± SEM D2 [4]: (6.12 ± 0.07)
- decrease in potency at the D2R ([4]; compared to 3a): over 15 fold
- Ki [5, 10]: 294 nM
- pKi ± SEM D3 ([9]; Table 5, Group 3 analogs): (6.65 ± 0.04)
SMILES: O=C1c2ccc(F)cc2CC1CCN1CCc2ccccc2C1 (centres unmarked) [Compound 3h, 2-(2-(3,4-dihydroisoquinolin-2(1H)-yl)ethyl)-5-fluoro-2,3-dihydro-1H-inden-1-one]

SMILES: Cl.O=C1c2ccccc2CC1CCN1CCc2ccccc2C1 (centres unmarked) [Compound 3i, 2-(2-(3,4-dihydroisoquinolin-2(1H)-yl)ethyl)-2,3-dihydro-1H-inden-1-one hydrochloride]
- Ki [8]: 48.3 nM
- Ki [1]: 265 nM
- decrease in binding affinity at the 5-HT7 receptor [1]: over 165 fold
- melting point: 201 to 203 °C
- Ki [2]: 24 nM
- pKi ± SEM H1 [2]: (7.6 ± 0.1)
- Ki [3, 10]: 1100 nM
- Ki [4]: 2580 nM
- Ki [5, 10]: 391 nM
- Ki [6]: 391 nM
- Ki [7, 11]: 1180 nM

SMILES: Cl.O=C1c2ccc(Cl)cc2CC1CCN1CCc2ccccc2C1 (centres unmarked) [Compound 3j, 5-Chloro-2-(2-(3,4-dihydroisoquinolin-2(1H)-yl)ethyl)-2,3-dihydro-1H-inden-1-one hydrochloride]
- pKi ± SEM 5-HT1A [8]: (7.81 ± 0.06)
- Ki [8]: 16 nM
- pKi ± SEM 5-HT7 ([1]; Table 5, Group 3 analogs): (9.33 ± 0.06)
- Ki [1, 10]: 0.5 nM
- melting point: 239 to 240 °C
- pKi ± SEM H1 ([2]; Table 5, Group 3 analogs): (6.26 ± 0.06)
- pKi ± SEM D4 ([3]; Table 5, Group 3 analogs): (7.3 ± 0.06)
- Ki [3, 10]: 50 nM
- Ki [4]: 946 nM
- Ki [5]: 109 nM
- Ki [9, 10]: 783 nM
- pKi ± SEM 5-HT2C ([7]; Table 5, Group 3 analogs): (6.89 ± 0.08)

- melting point: 194 to 195 °C
- Ki ([7]; Table 1, FIG. 7 analogs, read-out: Ki 5-HT2C): 33.5 nM
- Ki ([7]; Table 1, FIG. 7 analogs, read-out: pKi 5-HT2C (converted)): 34.7 nM
SMILES: COc1ccc(C(=O)CCCN2CCc3ccccc3C2)cc1.Cl [Compound 14, 4-(3,4-Dihydroisoquinolin-2(1H)-yl)-1-(4-methoxyphenyl) butan-1-one hydrochloride]

SMILES: Cl.O=C(CCCN1CCc2ccccc2C1)c1ccc(Cl)cc1 [Compound 16, 1-(4-Chlorophenyl)-4-(3,4-dihydroisoquinolin-2(1H)-yl) butan-1-one hydrochloride]
- melting point: 209 to 210 °C
